Test results published in article PMC11093745 (Nature Methods, 2024).

Target: T1, cAMPinG1 (Mus musculus, UniProt Q9DBC7, DEL187-189)
T1 construct: gene Prkar1a; PKA-R1α residues 108-186 and 190-381, N-terminus removed, cpGFP (from GCaMP6f) inserted in the β4–β5 loop replacing 187-189, engineered linkers/cpGFP, N-terminal RSET; expressed in HEK293T, lysate
Experiment: sensor fluorescence titration in HEK293T lysate, Hill fit
Assay type: binding

T1 sequence (Q9DBC7 108-186, stated change not applied): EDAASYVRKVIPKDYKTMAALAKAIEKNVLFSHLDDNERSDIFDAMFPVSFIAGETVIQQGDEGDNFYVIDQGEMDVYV
T1 sequence (Q9DBC7 190-381, stated change not applied): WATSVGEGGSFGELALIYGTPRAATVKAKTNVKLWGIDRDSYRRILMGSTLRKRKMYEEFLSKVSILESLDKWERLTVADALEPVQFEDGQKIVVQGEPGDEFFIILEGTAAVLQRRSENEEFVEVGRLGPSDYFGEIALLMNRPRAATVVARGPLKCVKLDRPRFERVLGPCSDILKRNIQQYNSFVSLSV

Which Kd does the source give for `Nc1nc2c(ncn2[C@@H]2O[C@@H]3COP(=O)(O)O[C@H]3[C@H]2O)c(=O)[nH]1` [cGMP] here?
Its Kd is 12.2 µM.
